Laboratory results published in ChEMBL document CHEMBL5729772, “MYST family histone acetyltransferase inhibitors” (2023).

Tests used:
[1] = molecular target: Histone acetyltransferase KAT5 (Homo sapiens, UniProt Q92993); assay: (§1) KAT-5 Enzyme Assay: Enzyme assay buffer was 50 mM Tris pH 8.0, 0.002% Tween20, 0.005% bovine skin gelatin, and 1 mM dithiothreitol (DTT). For determination of IC50values, compounds were serially diluted with 2% (v/v) DMSO in the final reaction, pre-incubating each dilution of each compound with 40 μL of assay buffer containing KAT-5 enzyme (9 nM final concentration). 10 μL of assay buffer containing 1 μM peptide substrate and 0.5 μM acetyl coenzyme A (final concentrations) was added. Reactions (50 μL total) were then carried out at 25° C. for 90 minutes. Reactions were terminated by the addition of 0.5% formic acid (final concentration), and a sample of each reaction was analyzed by SAMDI Tech, Inc. (Chicago, Ill.) using self-assembled monolayer desorption/ionization time-of-flight mass spectrometry (Mrksich, M. (2008) Mass spectrometry of self-assembled monolayers: a new tool for molecular surface science. ACS Nano 2, 7-18).
Sequence of Histone acetyltransferase KAT5 (Q92993 whole entry): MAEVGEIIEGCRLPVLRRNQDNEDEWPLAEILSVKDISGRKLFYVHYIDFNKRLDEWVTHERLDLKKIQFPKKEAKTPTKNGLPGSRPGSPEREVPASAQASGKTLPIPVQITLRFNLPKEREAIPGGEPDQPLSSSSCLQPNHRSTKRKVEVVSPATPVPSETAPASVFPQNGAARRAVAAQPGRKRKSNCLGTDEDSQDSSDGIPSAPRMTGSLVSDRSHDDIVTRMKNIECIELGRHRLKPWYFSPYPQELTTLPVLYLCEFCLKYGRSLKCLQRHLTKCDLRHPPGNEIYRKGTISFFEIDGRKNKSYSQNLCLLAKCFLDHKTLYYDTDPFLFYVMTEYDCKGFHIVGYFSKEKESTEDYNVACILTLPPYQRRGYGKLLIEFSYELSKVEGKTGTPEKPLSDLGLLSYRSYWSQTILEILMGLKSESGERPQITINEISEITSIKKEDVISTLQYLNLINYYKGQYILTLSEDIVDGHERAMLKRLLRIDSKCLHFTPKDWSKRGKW

[2] = molecular target: T1, Histone acetyltransferase KAT8 (Homo sapiens, UniProt Q9H7Z6); assay: as §1, with “KAT-8 Enzyme” for “KAT-5 Enzyme”, “containing KAT-8” for “containing KAT-5”, “enzyme (12.5” for “enzyme (9”, “and 5” for “and 0.5”
T1 sequence (Q9H7Z6 whole entry): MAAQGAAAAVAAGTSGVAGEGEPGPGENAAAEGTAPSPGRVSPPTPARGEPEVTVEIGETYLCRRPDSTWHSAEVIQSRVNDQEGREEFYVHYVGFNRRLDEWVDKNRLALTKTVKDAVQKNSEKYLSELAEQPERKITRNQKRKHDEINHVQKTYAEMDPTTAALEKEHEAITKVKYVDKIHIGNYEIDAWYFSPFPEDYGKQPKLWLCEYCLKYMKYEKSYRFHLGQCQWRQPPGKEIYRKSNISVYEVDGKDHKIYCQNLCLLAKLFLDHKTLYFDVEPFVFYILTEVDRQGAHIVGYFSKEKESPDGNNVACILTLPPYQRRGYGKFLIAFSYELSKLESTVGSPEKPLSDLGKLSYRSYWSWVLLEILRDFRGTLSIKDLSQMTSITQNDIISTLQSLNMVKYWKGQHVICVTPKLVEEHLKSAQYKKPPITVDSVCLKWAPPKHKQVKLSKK

[3] = molecular target: Histone acetyltransferase KAT6A (Homo sapiens, UniProt Q92794); assay: as §1, with “KAT-6A Enzyme” for “KAT-5 Enzyme”, “Assay: KAT-6A.” for “Assay:”, “containing KAT-6A” for “containing KAT-5”, “enzyme (12.5” for “enzyme (9”, “and 1” for “and 0.5”
Sequence of Histone acetyltransferase KAT6A (Q92794 whole entry): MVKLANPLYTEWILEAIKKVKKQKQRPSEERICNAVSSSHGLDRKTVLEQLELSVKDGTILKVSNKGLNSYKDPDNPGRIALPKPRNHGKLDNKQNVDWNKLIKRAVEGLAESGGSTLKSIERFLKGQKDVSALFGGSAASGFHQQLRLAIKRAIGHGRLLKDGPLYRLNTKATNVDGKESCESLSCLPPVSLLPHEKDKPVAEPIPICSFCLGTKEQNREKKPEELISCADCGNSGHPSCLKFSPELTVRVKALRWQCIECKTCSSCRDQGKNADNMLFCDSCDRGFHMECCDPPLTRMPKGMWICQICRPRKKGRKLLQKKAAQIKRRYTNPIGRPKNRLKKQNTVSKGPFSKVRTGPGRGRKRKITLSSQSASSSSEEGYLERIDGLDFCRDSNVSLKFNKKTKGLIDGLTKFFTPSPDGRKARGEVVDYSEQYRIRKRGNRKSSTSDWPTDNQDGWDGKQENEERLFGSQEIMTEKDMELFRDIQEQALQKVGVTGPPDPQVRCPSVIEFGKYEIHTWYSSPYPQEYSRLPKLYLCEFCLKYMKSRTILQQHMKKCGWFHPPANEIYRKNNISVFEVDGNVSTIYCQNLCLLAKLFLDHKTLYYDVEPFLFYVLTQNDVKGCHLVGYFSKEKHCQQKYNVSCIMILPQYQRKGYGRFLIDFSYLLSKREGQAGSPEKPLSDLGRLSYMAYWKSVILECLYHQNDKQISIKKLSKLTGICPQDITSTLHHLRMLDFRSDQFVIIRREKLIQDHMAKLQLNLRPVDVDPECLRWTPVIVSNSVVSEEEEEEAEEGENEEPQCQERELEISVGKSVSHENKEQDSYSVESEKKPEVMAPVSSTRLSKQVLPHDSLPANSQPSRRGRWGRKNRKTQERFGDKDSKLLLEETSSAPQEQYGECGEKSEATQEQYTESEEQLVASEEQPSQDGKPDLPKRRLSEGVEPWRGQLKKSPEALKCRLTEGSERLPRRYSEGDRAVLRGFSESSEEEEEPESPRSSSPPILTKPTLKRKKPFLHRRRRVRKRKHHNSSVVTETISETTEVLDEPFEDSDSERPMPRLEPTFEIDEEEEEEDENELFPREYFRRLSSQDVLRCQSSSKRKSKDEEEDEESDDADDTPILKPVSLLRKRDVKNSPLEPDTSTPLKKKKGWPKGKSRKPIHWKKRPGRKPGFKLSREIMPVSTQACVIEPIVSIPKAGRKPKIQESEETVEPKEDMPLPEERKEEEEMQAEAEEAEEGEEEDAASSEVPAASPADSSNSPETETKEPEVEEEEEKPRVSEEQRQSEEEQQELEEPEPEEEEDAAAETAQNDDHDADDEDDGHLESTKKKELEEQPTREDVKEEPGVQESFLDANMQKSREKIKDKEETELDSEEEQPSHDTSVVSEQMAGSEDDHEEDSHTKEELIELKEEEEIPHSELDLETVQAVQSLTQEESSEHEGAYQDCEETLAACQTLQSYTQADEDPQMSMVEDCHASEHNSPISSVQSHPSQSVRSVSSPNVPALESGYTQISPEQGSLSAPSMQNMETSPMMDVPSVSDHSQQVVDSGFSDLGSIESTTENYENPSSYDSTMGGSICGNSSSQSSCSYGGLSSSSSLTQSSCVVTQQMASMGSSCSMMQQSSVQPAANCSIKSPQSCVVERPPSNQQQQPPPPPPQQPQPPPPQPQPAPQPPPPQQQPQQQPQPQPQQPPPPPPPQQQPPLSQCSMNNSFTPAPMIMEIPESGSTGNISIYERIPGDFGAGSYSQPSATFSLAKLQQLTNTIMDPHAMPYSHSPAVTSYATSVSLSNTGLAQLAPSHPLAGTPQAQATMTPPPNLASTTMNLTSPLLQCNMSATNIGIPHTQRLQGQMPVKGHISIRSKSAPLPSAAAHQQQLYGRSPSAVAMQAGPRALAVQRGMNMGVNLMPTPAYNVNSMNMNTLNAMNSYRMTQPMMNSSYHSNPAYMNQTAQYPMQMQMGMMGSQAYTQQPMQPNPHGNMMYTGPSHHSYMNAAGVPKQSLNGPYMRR

[4] = molecular target: Histone acetyltransferase KAT7 (Homo sapiens, UniProt O95251); assay: as §1, with “KAT-7 Enzyme” for “KAT-5 Enzyme”, “containing KAT-7” for “containing KAT-5”, “enzyme (6” for “enzyme (9”, “and 2” for “and 0.5”, “for 120” for “for 90”
Sequence of Histone acetyltransferase KAT7 (O95251 whole entry): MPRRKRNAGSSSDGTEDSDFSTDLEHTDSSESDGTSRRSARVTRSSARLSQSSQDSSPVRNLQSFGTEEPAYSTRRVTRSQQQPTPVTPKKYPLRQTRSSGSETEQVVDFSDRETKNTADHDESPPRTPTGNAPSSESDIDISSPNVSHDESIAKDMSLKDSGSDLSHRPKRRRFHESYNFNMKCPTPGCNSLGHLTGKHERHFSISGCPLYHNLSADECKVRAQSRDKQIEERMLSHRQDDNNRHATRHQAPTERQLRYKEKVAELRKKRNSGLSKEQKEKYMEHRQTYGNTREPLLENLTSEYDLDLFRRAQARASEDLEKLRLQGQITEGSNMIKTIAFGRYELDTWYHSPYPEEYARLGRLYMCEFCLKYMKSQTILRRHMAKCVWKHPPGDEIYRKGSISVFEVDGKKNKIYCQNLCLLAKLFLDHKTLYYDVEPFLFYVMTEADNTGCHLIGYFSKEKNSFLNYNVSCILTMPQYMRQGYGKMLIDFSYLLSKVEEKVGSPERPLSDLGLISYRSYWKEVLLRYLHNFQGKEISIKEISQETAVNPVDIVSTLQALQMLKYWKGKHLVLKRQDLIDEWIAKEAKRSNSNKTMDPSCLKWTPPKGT

| Structure (SMILES) | IC50 [1] [µM] | IC50 [2] | IC50 [3] [µM] | IC50 [4] [µM] |
| --- | --- | --- | --- | --- |
| Cn1cnc(-c2cc(Cl)c(F)c(C(=O)NNS(=O)(=O)c3ccccc3F)c2)c1 | < 10 | in the range around 30 µM | < 10 | < 10 |
| COc1ccc(S(=O)(=O)NNC(=O)c2cc(-c3cn(C)cn3)cc(Cl)c2F)cc1 | < 10 | in the range around 30 µM | < 10 | < 10 |
| CNc1cccc(S(=O)(=O)NNC(=O)c2cc(-c3cn(C)cn3)cc(Cl)c2F)c1 | < 10 | in the range around 30 µM | < 10 | < 10 |

Next, values leading:

| IC50 [1] [µM] | IC50 [2] | IC50 [3] [µM] | IC50 [4] [µM] | Structure (SMILES) |
| --- | --- | --- | --- | --- |
| < 10 | in the range around 30 µM | < 10 | < 10 | COc1ccc(S(=O)(=O)NNC(=O)c2cc(-c3cn(C)cn3)cc(Cl)c2F)nc1 |
| < 10 | in the range around 30 µM | < 10 | < 10 | COc1ccc(S(=O)(=O)NNC(=O)c2cc(-c3cn(C)cn3)cc(Cl)c2F)c(F)c1 |
